Source: US6248575A, “Nucleic acids encoding polypeptides having L-amino acid oxidase activity” (Novozymes Biotech, Inc., priority 1999, dated 2001)

Columns and labels:
[1] = target: T1, Trichoderma harzianum CBS 223.93 L-amino acid oxidase (Trichoderma harzianum, UniProt A0A2T4A4V3); experiment: Substrate specificity: specific activity and Km with various L-amino acids as substrates; type: biochemical; conditions: for Specific Activity / activity of the L-amino acid oxidase towards the substrate: phosphate buffer pH 8.5, room temperature; for Specific Activity: 20 minutes; for ranking of Km values among substrates: comparison of the substrates of Table 1; for Km: Lineweaver-Burk plots (1/v versus 1/s)
T1 sequence (A0A2T4A4V3 with tags, fused parts or gaps V19I/P71L/S84P/G163K/E317K/D352E/Y353H/V383A/D435A/DEL437-437/D438T/D462E/L570R/R580K/V618I): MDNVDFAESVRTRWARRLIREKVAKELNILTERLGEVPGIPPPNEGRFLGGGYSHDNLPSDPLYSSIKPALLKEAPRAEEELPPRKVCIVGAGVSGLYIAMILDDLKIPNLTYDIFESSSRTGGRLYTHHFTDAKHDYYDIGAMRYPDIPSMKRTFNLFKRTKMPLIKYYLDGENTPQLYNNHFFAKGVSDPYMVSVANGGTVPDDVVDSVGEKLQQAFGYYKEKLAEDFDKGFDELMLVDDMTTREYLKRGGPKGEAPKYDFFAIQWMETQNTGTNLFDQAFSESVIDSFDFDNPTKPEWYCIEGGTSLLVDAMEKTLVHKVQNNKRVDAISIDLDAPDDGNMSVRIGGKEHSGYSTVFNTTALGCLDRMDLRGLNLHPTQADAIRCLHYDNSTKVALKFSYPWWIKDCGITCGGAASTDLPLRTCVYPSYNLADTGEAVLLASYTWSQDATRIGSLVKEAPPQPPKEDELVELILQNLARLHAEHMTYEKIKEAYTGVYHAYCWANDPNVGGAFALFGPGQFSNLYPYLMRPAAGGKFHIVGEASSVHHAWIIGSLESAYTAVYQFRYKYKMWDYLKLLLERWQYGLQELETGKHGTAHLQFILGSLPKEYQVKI
Procedure: (§1) In the following characterization experiments, detection of H2 O2 was carried out using a Coprinus cinereus peroxidase (CiP), obtained according to WO 92/16634, at a level of 4.5 PODU/ml, and 0.4 mM ABTS in phosphate buffer at pH 7.0. The hydrogen peroxide concentrations were determined relative to a freshly prepared hydrogen peroxide standard solution.
For determination of substrate specificity, the activity of the L-amino acid oxidase was determined with various L-amino acids as substrates. The L-amino acid oxidase was incubated with the substrate in phosphate buffer at pH 8.5 and room temperature for 20 minutes. Generated hydrogen peroxide was detected using ABTS and CiP as described above. The specific activity was determined as described in Example 2 above.
Km values for the various substrates were determined by plotting values of 1/v versus 1/s (Lineweaver-Burk plots).

[2] = pH stability of the L-amino acid oxidase (residual activity); type: physicochemical, Trichoderma harzianum; conditions: 1 hour at 40° C., 50 mM phosphate buffer, FIG. 2
Procedure: as §1
(§2) For determination of the pH optimum, the assay was carried out in two steps. In the first step, the L-amino acid oxidase was incubated for 20 minutes with 1 mM of L-arginine in 100 mM of phosphate buffer at various pH values. In the second step, the generated hydrogen peroxide was detected as described above.
For determination of pH stability, the L-amino acid oxidase was incubated at various pH values for 1 hour at 40° C. in 50 mM of phosphate buffer. After dilution, residual activity was measured using the two-step procedure described above.

[3] = Temperature stability of the L-amino acid oxidase (residual activity); type: physicochemical, Trichoderma harzianum; conditions: phosphate buffer pH 8.5, 1 hour, FIG. 3
Procedure: as §1, §2
For determination of temperature stability, the L-amino acid oxidase was incubated in phosphate buffer at pH 8.5 for 1 hour at various temperatures. After dilution, residual activity was measured using the two-step procedure described above.

[4] = Specific activity of the purified L-amino acid oxidase; type: biochemical, Trichoderma harzianum; conditions: 50 mM phosphate buffer pH 8.5, 20° C., 1 mM L-arginine as substrate
Procedure: For purposes of the present invention, L-amino acid oxidase activity is determined according to the procedure described in WO 94/25574 where the hydrogen peroxide produced during the […] of L-arginine is measured by coupling the reaction to a peroxidase in the presence of 2,2'-azinobis(3-ethylbenzothiazoline-6sulfonate) (ABTS) which produces a greenish-blue color at 418 nm. One unit of L-amino acid oxidase activity is defined as 1.0 μmole of hydrogen peroxide produced per minute at 20° C. in 50 mM phosphate buffer at pH 8.5 with 1 mM L-arginine as substrate.
The specific activity of the purified L-amino acid oxidase was 16 U/mg determined in a 50 mM phosphate buffer at pH 8.5, 20° C. with 1 mM L-arginine as substrate. One unit of enzyme will form 1 μmole of hydrogen peroxide per minute. The amount of protein was quantified assuming that a solution of the L-amino acid oxidase having an optical density of 1 determined at 280 nm contains 1 mg of protein/ml. The L-amino acid oxidase yield was approximately 50 mg of pure protein per liter of culture medium.

[5] = pH activity profile / pH optimum of the L-amino acid oxidase; type: biochemical, Trichoderma harzianum; conditions: 20 minutes, 1 mM L-arginine, 100 mM phosphate buffer; FIG. 1
Procedure: as §1, §2

## N=C(N)NCCC[C@H](N)C(=O)O [L-arginine]
[1]; Substrate Conc. 1 mM
  Specific Activity: 16 U/mg
[1]; Substrate Conc. 10 mM
  Specific Activity: 30 U/mg
[1]
  ranking of Km values among substrates: lowest Km values
  activity of the L-amino acid oxidase towards the substrate: showed activity
[1]; from the experiments of Table 1
  preferred substrate: preferred substrate

## NC(=O)C[C@H](N)C(=O)O [L-asparagine]
[1]; Substrate Conc. 80 mM
  Specific Activity: 7 U/mg
[1]
  activity of the L-amino acid oxidase towards the substrate: showed activity

## CC(C)C[C@H](N)C(=O)O [L-leucine]
[1]; Substrate Conc. 80 mM
  Specific Activity: 16 U/mg
[1]
  activity of the L-amino acid oxidase towards the substrate: showed activity

## NCCCC[C@H](N)C(=O)O [L-lysine]
[1]
  Km: 0.2 mM
  ranking of Km values among substrates: lowest Km values
  activity of the L-amino acid oxidase towards the substrate: showed activity
[1]; Substrate Conc. 1 mM
  Specific Activity: 7 U/mg

## CSCC[C@H](N)C(=O)O [L-methionine]
[1]
  Km: 15 mM
  activity of the L-amino acid oxidase towards the substrate: showed activity
[1]; Substrate Conc. 80 mM
  Specific Activity: 8 U/mg

## N[C@@H](Cc1ccccc1)C(=O)O [L-phenylalamine]
[1]; Substrate Conc. 80 mM
  Specific Activity: 25 U/mg
[1]
  activity of the L-amino acid oxidase towards the substrate: showed activity

B1: L-amino acid oxidase: purified L-amino acid oxidase from Trichoderma harzianum CBS 223.93; deduced protein of 617 amino acids (SEQ ID NO. 2) (protein)
chain: MDNVDFAESVRTRWARRLIREKVAKELNILTERLGEVPGIPPPNEGRFLGGGYSHDNLPSDPLYSSIKPALLKEAPRAEEELPPRKVCIVGAGVSGLYIAMILDDLKIPNLTYDIFESSSRTGGRLYTHHFTDAKHDYYDIGAMRYPDIPSMKRTFNLFKRTKMPLIKYYLDGENTPQLYNNHFFAKGVSDPYMVSVANGGTVPDDVVDSVGEKLQQAFGYYKEKLAEDFDKGFDELMLVDDMTTREYLKRGGPKGEAPKYDFFAIQWMETQNTGTNLFDQAFSESVIDSFDFDNPTKPEWYCIEGGTSLLVDAMEKTLVHKVQNNKRVDAISIDLDAPDDGNMSVRIGGKEHSGYSTVFNTTALGCLDRMDLRGLNLHPTQADAIRCLHYDNSTKVALKFSYPWWIKDCGITCGGAASTDLPLRTCVYPSYNLADTGEAVLLASYTWSQDATRIGSLVKEAPPQPPKEDELVELILQNLARLHAEHMTYEKIKEAYTGVYHAYCWANDPNVGGAFALFGPGQFSNLYPYLMRPAAGGKFHIVGEASSVHHAWIIGSLESAYTAVYQFRYKYKMWDYLKLLLERWQYGLQELETGKHGTAHLQFILGSLPKEYQVKI
[2]; pH 10
  pH stability relative to initial activity: more than 70%
[2]; range pH 7-9.5
  pH stability relative to initial activity: more than 80%
[3]
  temperature range in which the enzyme is stable: from below 22 °C to above 60 °C
[3]; range 25° C. to 60° C.
  temperature stability relative to initial activity: more than 80%
[4]
  specific activity of the purified L-amino acid oxidase: 16 U/mg
[5]
  pH interval in which activity is shown: from pH below 7 to a pH of approximately 12
  pH optimum: ~9 pH
